Results taken from patent US4138554A, “7-[D-α-(4-Hydroxy-1,5-naphthyridine-3-carboxamido)-α-phenyl (and p-hydroxyphenyl)acetamido]-3-carbamoyloxymethyl-3-cephem-4-carboxylic acids” (priority 1977, dated 1979).
Converted amounts (≈) assume the structure as drawn. Where two headings read alike, the source gives them in different places.

Experiments:
Assay type in all cases: cell-based
K. pneumoniae = test: MIC by serial two-fold agar dilution (Mueller-Hinton agar), K. pneumoniae; settings: Klebsiella pneumoniae, K. pneumoniae, Table 1
Description: (§1) Minimum inhibitory concentrations (MIC) of BB-S520 were determined by serial two-fold agar dilution method using Steers' apparatus on Meuller-Hinton agar plate against 31 test organisms for the primary screening and also against 61 strains of Pseudomonas aeruginosa for the secondary evaluation. The results are shown in Table 1 and Table 2 along with those of BB-S514 and sulbenicillin.
(§2) Minimum inhibitory concentrations (MIC) of cephalosporins in the present study were determined by serial two-fold agar dilution method using Steers' apparatus on Mueller-Hinton agar plate against 31 test organisms for the primary screening and also against 61 strains of Pseudomonas aeruginosa for the secondary evaluation.

Klebsiella sp. = test: MIC by serial two-fold agar dilution (Mueller-Hinton agar), Klebsiella sp.; settings: Klebsiella sp., Table 1; read-out: MIC
Description: as §1, §2

E. cloacae = test: MIC by serial two-fold agar dilution (Mueller-Hinton agar), E. cloacae; settings: Enterobacter cloacae, Table 1
Description: as §1, §2

P. vulgaris = test: MIC by serial two-fold agar dilution (Mueller-Hinton agar), P. vulgaris; settings: Proteus vulgaris; P. vulgaris, Table 1; read-out: MIC
Description: as §1, §2

P. morganii = test: MIC by serial two-fold agar dilution (Mueller-Hinton agar), P. morganii; settings: Morganella morganii; P. morganii, Table 1; read-out: MIC
Description: as §1, §2

S. enteritidis = test: MIC by serial two-fold agar dilution (Mueller-Hinton agar), S. enteritidis; settings: Salmonella enterica; S. enteritidis, Table 1; read-out: MIC
Description: as §1, §2

S. marcescens = test: MIC by serial two-fold agar dilution (Mueller-Hinton agar), S. marcescens; settings: Serratia marcescens; S. marcescens, Table 1; read-out: MIC
Description: as §1, §2

Pseudomonas aeruginosa = test: MIC by agar dilution against 61 strains of Pseudomonas aeruginosa, secondary evaluation; settings: for MIC: Pseudomonas aeruginosa, read-out: MIC
Description: as §1, §2

[1] = tested on: Gram-positive (6 strains); test: Mean % relative activity (MIC) vs sulbenicillin, Gram-positive (6 strains); settings: Gram-positive (6 strains), from geometric means of MICs in Table 1
Description: as §1, §2

[2] = tested on: Gram-negative (19 strains); test: Mean % relative activity (MIC) vs sulbenicillin, Gram-negative (19 strains); settings: Gram-negative (19 strains), from geometric means of MICs in Table 1
Description: as §1, §2

Pseudomonas (6 strains) = test: Mean % relative activity (MIC) vs sulbenicillin, Pseudomonas (6 strains); settings: Pseudomonas (6 strains), from geometric means of MICs in Table 1
Description: as §1, §2

`CC(=O)OCC1=C(C(=O)O)N2C(=O)C(NC(=O)C(NC(=O)c3cnc4cccnc4c3O)c3ccccc3)C2SC1` (centres unmarked) [BB-S514] gave an MIC (K. pneumoniae) of 6.3 µg/mL (≈ 10.9 µM), an MIC (Klebsiella sp.) of 12.5 µg/mL (≈ 21.6 µM) and an MIC (E. cloacae; E. cloacae (1st line)) of 25 µg/mL (≈ 43.3 µM). The MIC (E. cloacae; E. cloacae (2nd line)) was 50 µg/mL (≈ 86.6 µM), the MIC (E. cloacae; E. cloacae (3rd line)) was 25 µg/mL (≈ 43.3 µM) and the MIC (P. vulgaris) was 25 µg/mL (≈ 43.3 µM). It also gave an MIC (P. morganii) of over 100 µg/mL, an MIC (S. enteritidis) of 6.3 µg/mL (≈ 10.9 µM) and an MIC (S. marcescens) of over 100 µg/mL. The “Mean % Relative Activity (Sulbenicillin = 100%)” value (shortened to “Mean % Relative Activity”) (Pseudomonas aeruginosa; Ps. aeruginosa (61 strains), from geometric means of MICs in Table 2) was 480%, the MIC (Pseudomonas aeruginosa; BBRI Pa-No. 1, D15, Table 2) was 6.3 µg/mL (≈ 10.9 µM) and the MIC (Pseudomonas aeruginosa; BBRI Pa-No. 2, VA, Table 2) was 6.3 µg/mL (≈ 10.9 µM). It also gave an MIC (Pseudomonas aeruginosa; BBRI Pa-No. 3, 1449VA, Table 2) of 3.1 µg/mL (≈ 5.37 µM), an MIC (Pseudomonas aeruginosa; BBRI Pa-No. 4, H9 D113, Table 2) of 12.5 µg/mL (≈ 21.6 µM) and an MIC (Pseudomonas aeruginosa; BBRI Pa-No. 5, M4865KC, Table 2) of 6.3 µg/mL (≈ 10.9 µM). For the same molecule, the MIC (Pseudomonas aeruginosa; BBRI Pa-No. 6, No. 5, Table 2) was 25 µg/mL (≈ 43.3 µM), the MIC (Pseudomonas aeruginosa; BBRI Pa-No. 7, Table 2) was 12.5 µg/mL (≈ 21.6 µM) and the MIC (Pseudomonas aeruginosa; BBRI Pa-No. 8, Table 2) was 6.3 µg/mL (≈ 10.9 µM). The MIC (Pseudomonas aeruginosa; BBRI Pa-No. 9, Yale, Table 2) was 6.3 µg/mL (≈ 10.9 µM), the MIC (Pseudomonas aeruginosa; BBRI Pa-No. 10, Table 2) was 50 µg/mL (≈ 86.6 µM) and the MIC (Pseudomonas aeruginosa; BBRI Pa-No. 11, Table 2) was 6.3 µg/mL (≈ 10.9 µM). The MIC (Pseudomonas aeruginosa; BBRI Pa-No. 12, Table 2) was 6.3 µg/mL (≈ 10.9 µM), the MIC (Pseudomonas aeruginosa; BBRI Pa-No. 14, Table 2) was 6.3 µg/mL (≈ 10.9 µM) and the MIC (Pseudomonas aeruginosa; BBRI Pa-No. 15, Table 2) was 12.5 µg/mL (≈ 21.6 µM). For the same molecule, the MIC (Pseudomonas aeruginosa; BBRI Pa-No. 16, No. 130, Table 2) was 1.6 µg/mL (≈ 2.77 µM), the MIC (Pseudomonas aeruginosa; BBRI Pa-No. 17, H6 D114, Table 2) was 3.1 µg/mL (≈ 5.37 µM) and the MIC (Pseudomonas aeruginosa; BBRI Pa-No. 18, H8 D121, Table 2) was 6.3 µg/mL (≈ 10.9 µM). It also gave an MIC (Pseudomonas aeruginosa; BBRI Pa-No. 19, Table 2) of 3.1 µg/mL (≈ 5.37 µM), an MIC (Pseudomonas aeruginosa; BBRI Pa-No. 20, Table 2) of 6.3 µg/mL (≈ 10.9 µM) and an MIC (Pseudomonas aeruginosa; BBRI Pa-No. 21, Table 2) of 6.3 µg/mL (≈ 10.9 µM). For the same molecule, the MIC (Pseudomonas aeruginosa; BBRI Pa-No. 23, Table 2) was 6.3 µg/mL (≈ 10.9 µM), the MIC (Pseudomonas aeruginosa; BBRI Pa-No. 24, Table 2) was 50 µg/mL (≈ 86.6 µM) and the MIC (Pseudomonas aeruginosa; BBRI Pa-No. 25, Table 2) was 1.6 µg/mL (≈ 2.77 µM). It also gave an MIC (Pseudomonas aeruginosa; BBRI Pa-No. 26, Ps32, Table 2) of 3.1 µg/mL (≈ 5.37 µM), an MIC (Pseudomonas aeruginosa; BBRI Pa-No. 28, CPH10527/72, Table 2) of 6.3 µg/mL (≈ 10.9 µM) and an MIC (Pseudomonas aeruginosa; BBRI Pa-No. 29, D122, Table 2) of 3.1 µg/mL (≈ 5.37 µM). The MIC (Pseudomonas aeruginosa; BBRI Pa-No. 30, Table 2) was 6.3 µg/mL (≈ 10.9 µM), the MIC (Pseudomonas aeruginosa; BBRI Pa-No. 31, Table 2) was 1.6 µg/mL (≈ 2.77 µM) and the MIC (Pseudomonas aeruginosa; BBRI Pa-No. 32, Table 2) was 6.3 µg/mL (≈ 10.9 µM). The MIC (Pseudomonas aeruginosa; BBRI Pa-No. 33, Table 2) was 25 µg/mL (≈ 43.3 µM), the MIC (Pseudomonas aeruginosa; BBRI Pa-No. 34, Table 2) was 6.3 µg/mL (≈ 10.9 µM) and the MIC (Pseudomonas aeruginosa; BBRI Pa-No. 35, Table 2) was 25 µg/mL (≈ 43.3 µM). For the same molecule, the MIC (Pseudomonas aeruginosa; BBRI Pa-No. 36, Table 2) was 0.4 µg/mL (≈ 0.693 µM), the MIC (Pseudomonas aeruginosa; BBRI Pa-No. 37, Table 2) was 6.3 µg/mL (≈ 10.9 µM) and the MIC (Pseudomonas aeruginosa; BBRI Pa-No. 38, Table 2) was 12.5 µg/mL (≈ 21.6 µM). For the same molecule, the MIC (Pseudomonas aeruginosa; BBRI Pa-No. 39, Table 2) was 3.1 µg/mL (≈ 5.37 µM), the MIC (Pseudomonas aeruginosa; BBRI Pa-No. 41, Table 2) was 6.3 µg/mL (≈ 10.9 µM) and the MIC (Pseudomonas aeruginosa; BBRI Pa-No. 42, Table 2) was 12.5 µg/mL (≈ 21.6 µM). The MIC (Pseudomonas aeruginosa; BBRI Pa-No. 43, Table 2) was 6.3 µg/mL (≈ 10.9 µM), the MIC (Pseudomonas aeruginosa; BBRI Pa-No. 44, Table 2) was 6.3 µg/mL (≈ 10.9 µM) and the MIC (Pseudomonas aeruginosa; BBRI Pa-No. 51, Table 2) was 6.3 µg/mL (≈ 10.9 µM). For the same molecule, the MIC (Pseudomonas aeruginosa; BBRI Pa-No. 52, Table 2) was 6.3 µg/mL (≈ 10.9 µM), the MIC (Pseudomonas aeruginosa; BBRI Pa-No. 53, Table 2) was 6.3 µg/mL (≈ 10.9 µM) and the MIC (Pseudomonas aeruginosa; BBRI Pa-No. 54, Table 2) was 6.3 µg/mL (≈ 10.9 µM). The MIC (Pseudomonas aeruginosa; BBRI Pa-No. 55, Table 2) was 6.3 µg/mL (≈ 10.9 µM), the MIC (Pseudomonas aeruginosa; BBRI Pa-No. 56, Table 2) was 6.3 µg/mL (≈ 10.9 µM) and the MIC (Pseudomonas aeruginosa; BBRI Pa-No. 57, Table 2) was 3.1 µg/mL (≈ 5.37 µM). The MIC (Pseudomonas aeruginosa; BBRI Pa-No. 58, Table 2) was 12.5 µg/mL (≈ 21.6 µM), the MIC (Pseudomonas aeruginosa; BBRI Pa-No. 59, Table 2) was 6.3 µg/mL (≈ 10.9 µM) and the MIC (Pseudomonas aeruginosa; BBRI Pa-No. 60, Table 2) was 3.1 µg/mL (≈ 5.37 µM). The MIC (Pseudomonas aeruginosa; BBRI Pa-No. 61, Table 2) was 6.3 µg/mL (≈ 10.9 µM), the MIC (Pseudomonas aeruginosa; BBRI Pa-No. 62, Table 2) was 12.5 µg/mL (≈ 21.6 µM) and the MIC (Pseudomonas aeruginosa; BBRI Pa-No. 64, Table 2) was 6.3 µg/mL (≈ 10.9 µM). For the same molecule, the MIC (Pseudomonas aeruginosa; BBRI Pa-No. 65, Table 2) was 3.1 µg/mL (≈ 5.37 µM), the MIC (Pseudomonas aeruginosa; BBRI Pa-No. 66, Table 2) was 3.1 µg/mL (≈ 5.37 µM) and the MIC (Pseudomonas aeruginosa; BBRI Pa-No. 67, Table 2) was 12.5 µg/mL (≈ 21.6 µM). It also gave an MIC (Pseudomonas aeruginosa; BBRI Pa-No. 68, Table 2) of 12.5 µg/mL (≈ 21.6 µM), an MIC (Pseudomonas aeruginosa; BBRI Pa-No. 69, Table 2) of 25 µg/mL (≈ 43.3 µM) and an MIC (Pseudomonas aeruginosa; BBRI Pa-No. 70, K-Ps102 (CR-102), Table 2) of 6.3 µg/mL (≈ 10.9 µM). For the same molecule, the MIC (Pseudomonas aeruginosa; GN315, BBRI Pa-No. 27, GN315, Table 2) was 6.3 µg/mL (≈ 10.9 µM), the MIC (Pseudomonas aeruginosa; GN4925, BBRI Pa-No. 45, GN4925, Table 2) was 12.5 µg/mL (≈ 21.6 µM) and the “Mean % Relative Activity” value [1] was 71%. For the same molecule, the “Mean % Relative Activity” value [2] was 96% and the “Mean % Relative Activity” value (Pseudomonas (6 strains)) was 283%.
